“And” between values parts separate entries of the source, which are not always exact repeats. Equal entries are not always repeated. Where two headings read alike, the source gives them in different places.
Tests used:
[1] = Thiolation of inhibitors with glutathione, LCMS; type: physicochemical; conditions: 1 mM glutathione, 0.5 mM compound, Tris pH 8.0, 10% DMSO, room temperature
Procedure: Samples were analyzed by HPLC-MS (as described above) by injecting 0.01 mL aliquots onto a Luna […] C18(2) 100 Å, 4.6 mm, 50 mm column (Phenomenex) using the HPLC method described in the chemistry section at 0-6 h time points. […] Integration of the chromatographic peaks of the inhibitors and their GSH adducts at each time point was used to determine the rate of GSH adduct formation.

[2] = target: human cathepsin S (Homo sapiens (Human), UniProt P25774); conditions: Ref. 32; read-out: apparent IC50 Human Cathepsin S; cited from earlier work
Sequence of human cathepsin S (P25774 115-331): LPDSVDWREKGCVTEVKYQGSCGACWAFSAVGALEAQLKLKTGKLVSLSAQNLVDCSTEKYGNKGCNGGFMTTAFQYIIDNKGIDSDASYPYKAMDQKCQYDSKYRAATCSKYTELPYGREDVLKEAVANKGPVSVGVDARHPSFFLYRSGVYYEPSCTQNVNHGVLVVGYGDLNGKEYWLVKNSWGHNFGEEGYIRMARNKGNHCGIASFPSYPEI

[3] = tested on: T. cruzi epimastigotes (strain Y); test: Growth of axenic cultures of T. cruzi epimastigotes; conditions: epimastigotes
Procedure: Selected cruzain inhibitors in axenic cell cultures of Trypanosoma brucei brucei (procyclic trypomastigotes; ATCC PRA-381) and Trypanosoma cruzi (epimastigote forms; strain Y, ATCC 50832GFP) were tested. T. b. brucei is grown in SDM-79 medium, and T. cruzi is grown in ATCC medium (1029 LIT medium). Both media included fetal calf serum (10%) and penicillin/streptomycin (50 U/mL). […] T. brucei and T. cruzi (5 mL in flask cultures) at 26° C. were seeded at ˜3×10^6 cells, and diluted daily maintaining a mid-log growth phase for up to 100 hrs. Cell counts were scored using a Z2 Coulter Counter. After each cell dilution, fresh compound or an equal volume of DMSO (control samples), was supplemented into the cultures. […] Cruzain inhibitors where the highest concentration reflects the upper limit of solubilities of the inhibitors in 1% (v/v) DMSO solutions were evaluated. These inhibitors are likely to bind to proteins in fetal calf serum, and for these reasons, fresh inhibitors were added each time cells were re-fed.
Selected cruzain inhibitors were evaluated in axenic cell cultures of T. b. brucei and T. cruzi. Procyclic trypomastigotes of T. b. brucei (ATCC PRA-381) were grown in the SDM-79 medium at 26° C., and bloodstream forms (ATCC PRA-383) were grown at 37° C. in the HMI-9 medium at 5% C02. T. cruzi (epimastigote forms, strain Y, ATCC 50832GFP) was grown in the ATCC medium (1029 LIT medium). Both forms of T. b. brucei and T. cruzi were grown in media containing 10% fetal bovine serum (FBS) and penicillin/streptomycin (50 U mL^−1). […] Control samples contained equal amounts of DMSO. T. b. brucei and T. cruzi (5 mL in flask cultures) were seeded at ˜3×10^6 cells and diluted daily, maintaining a mid-log growth phase for up to 120 h. […] After each cell dilution, fresh compound or an equal volume of DMSO (control samples) was supplemented into the cultures, while maintaining a constant concentration of each inhibitor. Cell counts were scored using a Z2 Coulter Counter.

[4] = tested on: T. cruzi epimastigotes (strain Y); conditions: Ndao et al. (2014), read-out: trypanocidal activity EC50; cited from earlier work
[5] = tested on: C2C12 mouse cardiomyoblast cell line; test: Host cell cytotoxicity in the T. cruzi infection model; type: cell-based; conditions: host cardiomyoblasts; read-out: C2C12 Cytotoxicity CC50
Summary of the method: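 C2C12 murine cardiomyoblasts infected with T. cruzi were incubated with compound 48 h at 37 °C, fixed in 2% PFA and stained with 5 μg/ml DAPI. Automated microscopy imaging quantified host cells and parasites separately; host cytotoxicity derived as CC50.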

[6] = tested on: T. b. brucei procyclic forms; test: Growth of axenic cultures of T. b. brucei procyclic forms (PCFs); type: cell-based, Trypanosoma brucei brucei; conditions: axenic culture; read-out: EC50 T. b. brucei PCF
[7] = tested on: T. b. brucei bloodstream forms; test: Growth of axenic cultures of T. b. brucei bloodstream forms (BSFs); conditions: read-out: EC50 T. b. brucei BSF; axenic culture
[8] = tested on: T. cruzi (Ca-I/72) in C2C12 murine cardiomyoblasts; test: T. cruzi-infected murine cardiomyoblasts (C2C12); type: cell-based, Trypanosoma cruzi; conditions: C2C12 murine cardiomyoblasts, read-out: EC50 T. cruzi-infected cardiomyoblasts
Summary of the method: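 Infected-host-cell imaging assay: inhibitor, 3-fold dilutions topping at 10 μM, was added to C2C12 murine cardiomyoblasts infected with 10^3 or 10^4 Ca-I/72 parasites for 2 days at 37° C. DAPI-stained fixed wells were imaged to count parasites and host cells separately, yielding antiparasitic EC50 and cytotoxic CC50.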

[9] = tested on: human dermal fibroblasts; test: Human cell toxicity, resazurin viability; type: cell-based
Summary of the method: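 Primary human dermal fibroblasts, 2400 cells/well, exposed in duplicate to inhibitors at final 0.001-0.1 mM in 1% DMSO (1% DMSO control) for 48 h at 37 °C. Resazurin then added and viability read by fluorescence (544/590 nm) after further 24 h.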

## CN1CCN(C(=O)N[C@@H](Cc2ccccc2)C(=O)N[C@H](/C=C/S(=O)(=O)c2ccccc2)CCc2ccccc2)CC1 [Compound K11777, reference compound]
[1]
  Rate of Thiolation, k: 0.00467 ± 0.0067 M⁻¹ s⁻¹
[2]
  IC50: 0.0006 µM
[3]
  T. cruzi axenic culture EC50: poorly effective
[3]; read-out: T. cruzi axenic culture EC50
  EC50: ~60 µM
[4]
  EC50: 10 to 100 µM
[5]
  CC50: > 10 µM
[6]
  EC50: 2 µM and 2.3 µM and 1.7 µM
[7]
  EC50: 0.09 ± 0.06 µM
[8]; listed as K777
  EC50: 0.038 ± 0.009 µM
[8]
  EC50: 0.7 µM
[9]
  EC50: 70 µM
[9]; concentration at which toxicity was or was not seen
  toxicity in human dermal fibroblasts, concentration: 70 µM
[9]; human dermal fibroblasts, read-out: Human Cell Cytotoxicity CC50
  CC50: 60 to 100 µM

Source: patent US20240150396A1 (The Texas A&M University System, priority 2021, published 2024)
